One block for each compound: values may come before it.
How the values were obtained:
Format in all cases: biochemical
[1] = target: T1, soluble chondroitin synthase fused with a cleavable insulin signal sequence and a protein A (Homo sapiens, UniProt Q86X52, R588T); assay: GalNAc transferase assay, UDP-[3H]GalNAc as donor; conditions: for ACTIVITY (receptor specificity): enzyme-bound beads, MES pH 6.5, 10 mM MnCl2, 37° C., one hour, average of two experiments
T1 construct: ID; NO: 2; made in house; host or cells: COS-1 cells (transient transfection; secreted fusion protein captured from the medium on IgG-Sepharose beads)
T1 sequence (Q86X52 47-802 R588T): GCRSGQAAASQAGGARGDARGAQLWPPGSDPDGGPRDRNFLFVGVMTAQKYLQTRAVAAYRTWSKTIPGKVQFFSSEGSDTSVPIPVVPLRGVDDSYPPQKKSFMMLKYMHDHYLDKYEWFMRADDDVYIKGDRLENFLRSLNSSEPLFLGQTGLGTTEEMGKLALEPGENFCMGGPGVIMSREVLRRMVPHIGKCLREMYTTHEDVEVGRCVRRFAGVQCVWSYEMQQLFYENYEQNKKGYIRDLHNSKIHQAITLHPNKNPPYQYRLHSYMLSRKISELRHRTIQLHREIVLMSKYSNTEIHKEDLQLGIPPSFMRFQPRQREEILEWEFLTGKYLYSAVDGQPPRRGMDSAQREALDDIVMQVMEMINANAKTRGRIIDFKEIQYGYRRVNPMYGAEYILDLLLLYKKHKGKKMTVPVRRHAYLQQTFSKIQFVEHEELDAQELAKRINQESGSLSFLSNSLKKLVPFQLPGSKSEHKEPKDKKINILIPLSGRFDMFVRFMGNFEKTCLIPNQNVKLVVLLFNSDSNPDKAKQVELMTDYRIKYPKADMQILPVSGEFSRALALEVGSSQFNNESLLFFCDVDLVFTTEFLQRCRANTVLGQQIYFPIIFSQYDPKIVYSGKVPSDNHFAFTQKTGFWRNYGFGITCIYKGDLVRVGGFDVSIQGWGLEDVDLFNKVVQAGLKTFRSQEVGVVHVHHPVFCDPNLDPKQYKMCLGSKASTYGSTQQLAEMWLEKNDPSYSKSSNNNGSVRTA
Method: (§1) By using FuGENE (Trademark) 6 (Roche Molecular Biochemicals Co., Tokyo), an expression plasmid (6.7 μg) was transfected into a COS-1 cell on a 100 mm plate, in accordance with a manual of the manufacture. On the second day from the transfection, 1 ml of an incubation liquid was collected and incubated together with 10 μL of IgG-Sepharose (Amersham Pharmacia Biotech) at 4° C. for one hour. Beads of the IgG-Sepharose was collected by centrifugation, and then washed with an assay buffer. After that, the beads were resuspended in an assay buffer of the same kind as the assay buffer. The beads were used for assaying GalNAc transferase, GlcUA transferase, and Gal transferase. That is, a fused protein occurred in the incubation liquid was absorbed by IgG-Sepharose so as to remove glycosyltransferases in the incubation liquid. Then, by using the enzyme bound beads as an enzyme source, glycosyltransferase activity of the fused protein that was bound to the beads was assayed with various receptor substrates and donor substrates.
As a receptor for GalNAc transferase, a polymer (167 μg) of chondroitin, α-thrombomodulin (1 nmol), or GlcUAβ1-3Galβ1-3Galβ1-4Xylβ1-0-Ser (1 nmol) was used. Moreover, as a receptor for GlcUA transferase, the polymer (167 μg) of chondroitin or Galβ1-3Galβ1-4Xylβ (1 nmol) was used. As a receptor of Gal transferase, sheep submandibular asialomucin (300 μg) or GlcNAcβ1-3Galβ1-4GlcNAcβ1-3Galβ1-4GlcNAc (1 nmol) was used. […]
(§2) Assay of GlcUA transferase I (GlcAT-I), which is necessary for synthesis of tetrasaccharide for the linkage region, was carried out with a mixture of, in 30 μL in total, 10 μL of the resuspended beads, 1 nmol Galβ1-3Galβ1-4Xyl, 14.3 μM UDP-[^14C]GlcUA (1.46×10^5 dpm), 50 mM MES buffer, pH6.5, and 2 mM MnCl2 (FEBS lett. 459, 415-420 (1999)). […] The thus collected labeled products were quantified by liquid scintillation spectroscopy.

[2] = target: T1, soluble chondroitin synthase fused with a cleavable insulin signal sequence and a protein A; assay: GlcUA transferase I (GlcAT-I) assay, UDP-[14C]GlcUA as donor; conditions: enzyme-bound beads, MES pH 6.5, 2 mM MnCl2, 37° C., one hour, average of two experiments
Method: as §1, with “Then, by using the enzyme bound beads as an enzyme source, glycosyltransferase activity of the fused protein that was bound to the beads was assayed with various receptor substrates and donor substrates.” left out
as §2

[3] = target: T1, soluble chondroitin synthase fused with a cleavable insulin signal sequence and a protein A; assay: Gal transferase assay, UDP-[3H]Gal as donor; conditions: enzyme-bound beads, MES pH 6.5, 10 mM MnCl2, 37° C., one hour, average of two experiments
Method: as §1, with “Then, by using the enzyme bound beads as an enzyme source, glycosyltransferase activity of the fused protein that was bound to the beads was assayed with various receptor substrates and donor substrates.” left out
as §2

[4] = target: T1, soluble chondroitin synthase fused with a cleavable insulin signal sequence and a protein A; assay: GlcUA transferase II (GlcAT-II) assay, chondroitin polymer as receptor, UDP-[14C]GlcUA as donor
Method: as §1, with “Then, by using the enzyme bound beads as an enzyme source, glycosyltransferase activity of the fused protein that was bound to the beads was assayed with various receptor substrates and donor substrates.” left out
as §2

Compound: N[C@@H](CO[C@@H]1OC[C@@H](O[C@@H]2O[C@H](CO)[C@H](O)[C@H](O[C@@H]3O[C@H](CO)[C@H](O)[C@H](O[C@@H]4O[C@H](C(=O)O)[C@@H](O)[C@H](O)[C@H]4O)[C@H]3O)[C@H]2O)[C@H](O)[C@H]1O)C(=O)O [GlcUAβ1-3Galβ1-3Galβ1-4Xylβ-O-Ser, GlcUAβ1-3Galβ1-3Galβ1-4Xylβ1-O-Ser]
ACTIVITY (receptor specificity) [1]: ND (ND: Not Detected (<0.1 pmol/ml medium/time))

Compound: OC[C@H]1O[C@@H](O[C@H]2[C@@H](O)[C@@H](CO)O[C@@H](O[C@@H]3COC(O)[C@H](O)[C@H]3O)[C@@H]2O)[C@H](O)[C@@H](O)[C@H]1O (stereo partly shown) [Galβ1-3Galβ1-4Xyl]
ACTIVITY (receptor specificity) [2]: ND (ND: Not Detected (<0.1 pmol/ml medium/time))

Compound: GlcNAcβ1-3Galβ1-4GlcNAcβ1-3Galβ1-4GlcNAc
ACTIVITY (receptor specificity) [3]: ND (ND: Not Detected (<0.1 pmol/ml medium/time))

glycosyltransferase activity detected or not (in words) [4]: Activities were detected
ACTIVITY (receptor specificity) ([4]; enzyme-bound IgG-Sepharose beads, pH 5.6, 10 mM MnCl2, 37° C., one hour, average of two experiments): 5.2 pmol/ml medium/time
glycosyltransferase activity detected or not (in words) [1]: Activities were detected
ACTIVITY (receptor specificity) [1]: 1.4 pmol/ml medium/time
Compound: Chondroitin

— patent US8685674B2, “Chondroitin synthase, method for producing the same and method for producing saccharide chain-extended chondroitin” (Glytech, Inc., priority 2001, dated 2014)
